# From US8309735B2, “Heterocyclic compounds for the inhibition of integrins and use thereof” (Shire Orphan Therapies GmbH, priority 2006, dated 2012)
# What was measured:
# [1] = target: T1, Integrin alphaIIbbeta3 (Homo sapiens, UniProt P05106+P08514); assay: alphaIIbbeta3 - Fibrinogen Binding Assay (competitive ELISA); details: inhibition of integrin binding to fibrinogen, read-out: IC50 alphabIIbbeta3
# T1 construct: purchased Kordia (Kordia Life Science, Leiden, Netherlands)
# T1 sequence (P08514 32-887 limits assumed): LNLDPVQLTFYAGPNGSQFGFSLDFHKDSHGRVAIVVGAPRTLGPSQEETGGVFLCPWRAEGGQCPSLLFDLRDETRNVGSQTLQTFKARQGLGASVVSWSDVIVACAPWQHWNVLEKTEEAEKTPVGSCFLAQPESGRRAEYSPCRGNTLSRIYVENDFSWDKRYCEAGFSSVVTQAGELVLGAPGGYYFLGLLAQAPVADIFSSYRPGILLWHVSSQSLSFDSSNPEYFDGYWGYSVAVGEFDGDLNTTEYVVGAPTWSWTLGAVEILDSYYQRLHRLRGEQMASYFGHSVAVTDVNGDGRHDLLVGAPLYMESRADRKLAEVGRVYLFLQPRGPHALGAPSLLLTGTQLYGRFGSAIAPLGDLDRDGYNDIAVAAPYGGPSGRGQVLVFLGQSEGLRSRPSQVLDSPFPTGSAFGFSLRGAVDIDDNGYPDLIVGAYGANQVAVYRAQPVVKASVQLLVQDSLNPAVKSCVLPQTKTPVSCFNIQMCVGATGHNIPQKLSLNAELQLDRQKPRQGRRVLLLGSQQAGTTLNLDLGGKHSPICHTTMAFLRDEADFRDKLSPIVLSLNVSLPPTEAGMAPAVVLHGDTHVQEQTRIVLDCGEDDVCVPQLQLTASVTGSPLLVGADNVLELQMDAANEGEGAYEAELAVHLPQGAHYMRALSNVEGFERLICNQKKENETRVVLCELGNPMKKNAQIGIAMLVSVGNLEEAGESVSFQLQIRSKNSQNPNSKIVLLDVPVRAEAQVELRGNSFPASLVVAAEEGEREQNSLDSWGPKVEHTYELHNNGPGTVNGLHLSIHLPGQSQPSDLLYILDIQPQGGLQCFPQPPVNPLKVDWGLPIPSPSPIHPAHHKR
# T1 sequence (P05106 27-788): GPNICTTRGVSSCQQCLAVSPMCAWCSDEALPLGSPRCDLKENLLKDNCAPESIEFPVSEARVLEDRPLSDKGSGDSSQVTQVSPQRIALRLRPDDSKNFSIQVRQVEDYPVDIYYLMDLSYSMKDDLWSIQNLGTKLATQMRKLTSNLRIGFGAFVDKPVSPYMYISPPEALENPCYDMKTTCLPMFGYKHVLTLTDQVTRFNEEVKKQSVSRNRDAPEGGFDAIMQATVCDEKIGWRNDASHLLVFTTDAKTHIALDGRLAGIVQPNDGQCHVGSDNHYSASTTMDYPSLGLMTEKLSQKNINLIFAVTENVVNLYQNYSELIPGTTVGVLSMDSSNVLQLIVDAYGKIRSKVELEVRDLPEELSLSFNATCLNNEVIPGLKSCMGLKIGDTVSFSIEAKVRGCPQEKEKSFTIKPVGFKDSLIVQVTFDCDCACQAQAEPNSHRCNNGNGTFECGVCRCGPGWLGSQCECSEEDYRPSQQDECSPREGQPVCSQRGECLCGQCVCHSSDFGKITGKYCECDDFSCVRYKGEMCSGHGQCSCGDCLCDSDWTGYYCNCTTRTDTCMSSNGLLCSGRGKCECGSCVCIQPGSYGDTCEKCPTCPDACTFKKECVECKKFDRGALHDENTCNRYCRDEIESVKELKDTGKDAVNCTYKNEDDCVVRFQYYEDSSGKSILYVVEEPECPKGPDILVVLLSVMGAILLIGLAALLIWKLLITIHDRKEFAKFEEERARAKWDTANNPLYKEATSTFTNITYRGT
# Protocol: (§1) The optimal concentrations of integrin and ligand were selected from ELISA binding studies with variable concentrations of both to obtain optimal signal noise ratio for further studies. IC50 studies were performed with fixed concentration of ligand and integrin and a serial dilution of inhibitor. The plates were measured with SpectraMax Plus reader (Molecular Devices). The resulting inhibition curves were analyzed using SoftMaxPro 4.0 software, the turning point describes the IC50 value.
# (§2) Fibronectin was purchased from Sigma and fibrinogen from Calbiochem. (EMD Biosciences, Darmstadt, Germany). The integrin alpha5beta1 extracellular domain Fc-fusion was expressed and purified as described (Coe, 2001, J. Biol. Chem., 276, 35854). Integrin alphaIIbbeta3 was purchased form Kordia (Kordia Life Science, Leiden, Netherlands)
# 1.2. alphaIIbbeta3—Fibrinogen Binding Assay
# Fibrinogen was diluted with coating buffer (15 mM Na2CO3, 35 mM NaHCO3, pH 9.6) and coated with 100 μL/well to Nunc-Immuno maxisorp plates over night at 4° C. After discarding the coating solution plates were washed 3 times with buffer 1 (25 mM Tris, pH 7.6, 150 mM NaCl, 1 mM MnCl2, 1 mg/ml BSA) and blocked with 100 μL blocking buffer (3% BSA in PBS 0.1% Tween20) for 1 hour at room temperature. After washing the blocked plates (3 times) with buffer 1, integrin alphaIIbbeta3 (50 μL) and either inhibitor (serial dilution in buffer 3, 25 mM Tris, pH 7.6, 150 mM NaCl, 1 mM MnCl2, 1 mg/ml BSA 1 mM MgCl2, 1 mM CaCl2,) or buffer 3 (50 μL) were added to the wells and incubated for one hour at RT. Plates were then washed (3 times) with buffer 3 and incubated with 100 μL of anti-alphaIIbbeta3 antibody (anti CD41b, Pharmingen) in buffer 3 for 1 hour at RT. Plates were washed (3 times) with buffer 3 and incubated for 1 hour with 100 μL secondary antibody (anti-mouse-HRP conjugate, Sigma) in buffer 3. After additional washing steps (3 times) with buffer 3 50 μL of HRP substrate solution TMB (Seramun) were added to the wells. Color development was stopped after 3-5 minutes with 50 μL 1 M H2SO4. The developed color was measured at 450 nm and analyzed as described above.
# [2] = target: T2, integrin alpha5beta1 extracellular domain Fc-fusion (Homo sapiens, UniProt P05556+P08648); assay: alpha5beta1 - Fibronectin Binding Assay (competitive ELISA); details: inhibition of integrin binding to fibronectin
# T2 construct: The integrin alpha5beta1 extracellular domain Fc-fusion was expressed and purified as described; made in house
# Protocol: as §1, §2
# 1.1. alpha5beta1—Fibronectin Binding Assay
# Fibronectin was diluted with coating buffer (15 mM Na2CO3, 35 mM NaHCO3, pH 9.6) and coated with 100 μL/well to Nunc-Immuno maxisorp plates (Nalge Nunc Europe Ltd) over night at 4° C. After discarding the coating solution plates were washed 3 times with buffer 1 (25 mM Tris, pH 7.6, 150 mM NaCl, 1 mM MnCl2, 1 mg/ml BSA) and blocked with 100 μL blocking buffer (3% BSA in PBS 0.1% Tween20) for 1 hour at room temperature. After washing the blocked plates (3 times) with buffer 1, integrin (50 μL) and either inhibitor (serial dilution in buffer 1) or buffer 1 (50 μL) were added to the wells and incubated for one hour at RT. Plates were then washed (3 times) with buffer 1 and incubated with 100 μL of anti-human-Fc-HRP antibody conjugate (Sigma-Aldrich, Taufkirchen, Germany) in buffer 1 for 1 hour at RT. After additional washing steps (3 times) with buffer 150 μL of HRP substrate solution TMB (Seramun, Germany) were added to the wells. Color development was stopped after 3-5 minutes with 50 μL 1 M H2SO4. The developed color was measured at 450 nm and analyzed as described above.
SMILES,IC50 [1],IC50 [2]
"Cc1ccnc(NCc2cnc(-c3ccc(C[C@H](NC(=O)c4c(C)cc(C)cc4C)C(=O)O)cc3)s2)c1 [Compound 9, 3-(4-{5-[(4-Methyl-pyridin-2-ylamino)-methyl]-thiazol-2-yl}-phenyl)-2-(2,4,6-trimethyl-benzoylamino)-propionic acid]",> 1 nM,< 100 nM
"Cc1ccnc(NCc2cn(-c3ccc(C[C@H](NC(=O)c4c(C)cc(C)cc4C)C(=O)O)cc3)nn2)c1 [Compound 15, 3-(4-{4-[(4-Methyl-pyridin-2-ylamino)-methyl]-[1,2,3]triazol-1-yl}-phenyl)-2-(2,4,6-trimethyl-benzoylamino)-propionic acid]",> 1 nM,< 100 nM
"Cc1ccnc(NCc2cc(-c3ccc(C[C@H](NC(=O)c4c(C)cc(C)cc4C)C(=O)O)cc3)on2)c1 [Compound 6, 3-(4-{3-[(4-Methyl-pyridin-2-ylamino)-methyl]-isoxazol-5-yl}-phenyl)-2-(2,4,6-trimethyl-benzoylamino)-propionic acid]",> 1 nM,< 100 nM
"Cc1ccnc(NCc2coc(-c3ccc(C[C@H](NC(=O)c4c(C)cc(C)cc4C)C(=O)O)cc3)c2)c1 [Compound 12, 3-(4-{4-[(4-Methyl-pyridin-2-ylamino)-methyl]-furan-2-yl}-phenyl)-2-(2,4,6-trimethyl-benzoylamino)-propionic acid]",> 1 nM,< 100 nM

# The next lines start with the values.
IC50 [1],IC50 [2],SMILES
> 1 nM,< 100 nM,"Cc1cc(C)c(C(=O)N[C@@H](Cc2ccc(-n3cc(CNc4nc5ccccc5[nH]4)nn3)cc2)C(=O)O)c(C)c1 [Compound 29, 3-(4-{4-[(1H-Benzoimidazol-2-ylamino)-methyl]-[1,2,3]triazol-1-yl}-phenyl)-2-(2,4,6-trimethyl-benzoylamino)-propionic]"
> 1 nM,< 100 nM,"Cc1ccnc(NCc2coc(-c3ccc(C[C@H](NC(=O)c4c(C)cccc4C)C(=O)O)cc3)c2)c1 [Compound 35, 2-(2,6-Dimethyl-benzoylamino)-3-(4-{4-[(4-methyl-pyridin-2-ylamino)-methyl]-furan-2-yl}-phenyl)-propionic acid]"
> 1 nM,< 100 nM,"Cc1ccnc(NCc2coc(-c3ccc(C[C@H](NC(=O)c4c(C)cc(F)cc4C)C(=O)O)cc3)c2)c1 [Compound 37, 2-(4-Fluoro-2,6-dimethyl-benzoylamino)-3-(4-{4-[(4-methyl-pyridin-2-ylamino)-methyl]-furan-2-yl}-phenyl)-propionic acid]"
> 1 nM,< 100 nM,"Cc1ccnc(NCc2ccn(-c3ccc(C[C@H](NC(=O)C4(C)CCCCC4)C(=O)O)cc3)c2)c1 [Compound 22, 2-[(1-Methyl-cyclohexanecarbonyl)-amino]-3-(4-{3-[(4-methyl-pyridin-2-ylamino)-methyl]-pyrrol-1-yl}-phenyl)-propionic acid]"
> 1 nM,< 100 nM,"Cc1ccnc(NCc2csc(-c3ccc(C[C@H](NC(=O)c4c(C)cc(C)cc4C)C(=O)O)cc3)c2)c1 [Compound 19, 3-(4-{4-[(4-Methyl-pyridin-2-ylamino)-methyl]-thiophen-2-yl}-phenyl)-2-(2,4,6-trimethyl-benzoylamino)-propionic acid]"
> 1 nM,< 100 nM,"CCc1cccc(C)c1C(=O)N[C@@H](Cc1ccc(-c2cc(CNc3cc(C)ccn3)co2)cc1)C(=O)O [Compound 36, 2-(2-Ethyl-6-methyl-benzoylamino)-3-(4-{4-[(4-methyl-pyridin-2-ylamino)-methyl]-furan-2-yl}-phenyl)-propionic acid]"
